The target in test [1] is T1, Cif (Pseudomonas aeruginosa (strain UCBPP-PA14), UniProt A0A0H2ZD27). In words: Primary high throughput screen with fluorogenic substrate CMNGC.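 Note: fluorescence of 200 µL reactions in 96-well plates read on a plate reader, inhibitor at tenfold molar excess over Cif enzyme.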 The note with it: primary screen; test compounds at 10 μM, 1 μM Cif, 25 μM CMNGC, 60 minutes. Format: biochemical.
The target of test [2] is T1, Cif. In words: Secondary screen (sextuplicate) with fluorogenic substrate CMNGC.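 For all read-outs here: purified enzyme assay in 96-well plates, 200 µL volume, fluorescence recorded each minute across a 60 min reaction.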 The format is biochemical. The note with it: for % Inhibition, Mean ± SD / % Inhibition, plate 1 / % Inhibition, plate 2 / % Inhibition, plate 3 / % Inhibition, plate 4 / % Inhibition, plate 5 / % Inhibition, plate 6: secondary screen, 10 μM; for % Inhibition, Mean ± SD: mean of six plates; for % Inhibition, plate 1: plate number 1; for % Inhibition, plate 2: plate number 2; for % Inhibition, plate 3: plate number 3; for % Inhibition, plate 4: plate number 4; for % Inhibition, plate 5: plate number 5; for % Inhibition, plate 6: plate number 6.

The mark [3] stands for this setting: read-out: % Inhibition, Mean ± SD.
[4] abbreviates: read-out: % Inhibition, plate 1.
Where [5] appears, read: read-out: % Inhibition, plate 2.
[6] abbreviates: read-out: % Inhibition, plate 3.
The mark [7] stands for this setting: read-out: % Inhibition, plate 4.
Setting [8] is: read-out: % Inhibition, plate 5.
[9] abbreviates: read-out: % Inhibition, plate 6.

SMILES strings stand for the structures. Structures can show the parent of a compound that is named as a salt.

T1 sequence (A0A0H2ZD27 25-319 limits assumed): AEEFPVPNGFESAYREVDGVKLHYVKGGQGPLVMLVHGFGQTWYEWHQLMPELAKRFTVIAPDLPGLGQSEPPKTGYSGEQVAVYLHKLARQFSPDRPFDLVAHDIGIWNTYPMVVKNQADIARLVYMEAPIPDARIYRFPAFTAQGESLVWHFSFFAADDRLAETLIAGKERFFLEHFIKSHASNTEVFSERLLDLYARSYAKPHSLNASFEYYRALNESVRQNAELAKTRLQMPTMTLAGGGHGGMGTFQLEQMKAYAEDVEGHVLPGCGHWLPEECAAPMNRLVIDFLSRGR

For the compound `Nc1nc(Cl)nc2c1ncn2[C@@H]1O[C@H](CO)[C@@H](O)[C@@H]1F` [Clofarabine], the inhibition at 10 µM in test [1] worked out at 43%; in test [2] (setting [3]), 12 ± 5%; in test [2] (setting [4]), 7%; in test [2] (setting [5]) it was 8%; in test [2] (setting [6]), 7%; in test [2] (setting [7]), 13%. The inhibition at 10 µM in test [2] (setting [8]) worked out at 20%; in test [2] (setting [9]), 16%.

With `CN(C)CCCN1c2ccccc2CCc2ccc(Cl)cc21` [Clomipramine hydrochloride], the inhibition at 10 µM in test [1] was determined as 51%; in test [2] (setting [3]) it was 5 ± 4%; in test [2] (setting [4]) it was 0%; in test [2] (setting [5]) it was 3%; in test [2] (setting [6]), 9%; in test [2] (setting [7]) it was 3%. In addition, the inhibition at 10 µM in test [2] (setting [8]) was determined as 9%; in test [2] (setting [9]), 7%.

Regarding `C[C@@H]1C[C@H]2[C@@H]3CCC4=CC(=O)C=C[C@]4(C)[C@@]3(F)[C@@H](O)C[C@]2(C)[C@H]1C(=O)CO` [Desoxymetasone], the “% Inhibition” value in test [1] amounted to 66%. In test [2], the “% Inhibition, Mean ± SD” value is 39 ± 4%; the “% Inhibition, plate 1” value is recorded as 34%; the “% Inhibition, plate 2” value was 42%; the “% Inhibition, plate 3” value is listed as 34%. In addition, in test [2], the “% Inhibition, plate 4” value is given as 40%; the “% Inhibition, plate 5” value is reported as 42%; the “% Inhibition, plate 6” value is recorded as 41%.

For the compound `COC(=O)/C=C/C(=O)OC` [Dimethyl fumarate], the inhibition at 10 µM in test [1] was 36%; in test [2] (setting [3]), 5 ± 4%; in test [2] (setting [4]), 3%; in test [2] (setting [5]), -2%; in test [2] (setting [6]), 8%; in test [2] (setting [7]), 7%. For the same compound, the inhibition at 10 µM in test [2] (setting [8]) turned out to be 9%; in test [2] (setting [9]) it was 6%.

Take `CC1=NN(c2ccccc2)C(=O)C1` [Edaravone]: the inhibition at 10 µM in test [1] stood at 43%; in test [2] (setting [3]), 16 ± 7%; in test [2] (setting [4]), 21%; in test [2] (setting [5]), 13%; in test [2] (setting [6]) it was 13%; in test [2] (setting [7]) it was 26%. Besides, the figures for the inhibition at 10 µM in test [2] (setting [8]) and in test [2] (setting [9]) were 19% and 6%, respectively.

As for `CCOC(=O)[C@H](CCc1ccccc1)N[C@@H](C)C(=O)N1CCC[C@H]1C(=O)O` [Enalapril maleate], the inhibition at 10 µM in test [1] was 31%; in test [2] (setting [3]), 4 ± 8%; in test [2] (setting [4]), -6%; in test [2] (setting [5]), 13%; in test [2] (setting [6]), 1%; in test [2] (setting [7]), 9%. The inhibition at 10 µM is 10% in test [2] (setting [8]) and -3% in test [2] (setting [9]).

In the case of `C[C@]12CC[C@@H]3c4ccc(O)cc4CC[C@H]3[C@@H]1CC[C@@H]2O` [Estradiol], the inhibition at 10 µM in test [1] amounted to 39%; in test [2] (setting [3]) it was 4 ± 5%; in test [2] (setting [4]) it was 4%; in test [2] (setting [5]), 5%; in test [2] (setting [6]), 5%; in test [2] (setting [7]), 6%. Besides, the results for the inhibition at 10 µM in test [2] (setting [8]) and in test [2] (setting [9]) were 8% and -6%, respectively.

Consider `C=CCc1ccc(O)c(OC)c1` [Eugenol], for which the inhibition at 10 µM in test [1] was determined as 32%; in test [2] (setting [3]), 3 ± 4%; in test [2] (setting [4]), 4%; in test [2] (setting [5]), 0%; in test [2] (setting [6]), 7%; in test [2] (setting [7]), 4%. The inhibition at 10 µM in test [2] (setting [8]) was 6%; in test [2] (setting [9]), -4%.

For `Cc1c(Nc2ncccc2C(=O)O)cccc1C(F)(F)F` [Flunixin meglumine], the inhibition at 10 µM in test [1] was 32%; in test [2] (setting [3]) it was 14 ± 5%; in test [2] (setting [4]), 13%; in test [2] (setting [5]), 15%; in test [2] (setting [6]), 14%; in test [2] (setting [7]), 18%. In addition, the inhibition at 10 µM turned out to be 19% in test [2] (setting [8]) and 4% in test [2] (setting [9]).

`CC(=O)[C@@]1(O)CC[C@H]2[C@@H]3C[C@H](C)C4=CC(=O)C=C[C@]4(C)[C@@]3(F)[C@@H](O)C[C@@]21C` [Fluorometholone]: the inhibition at 10 µM in test [1] turned out to be 31%; in test [2] (setting [3]), 18 ± 2%; in test [2] (setting [4]), 18%; in test [2] (setting [5]) it was 15%; in test [2] (setting [6]) it was 19%; in test [2] (setting [7]), 16%. Also, the inhibition at 10 µM in test [2] (setting [8]) turned out to be 21%; in test [2] (setting [9]) it was 16%.

In the case of `CC(O)CN1CCN(CC(=O)[O-])CCN(CC(=O)[O-])CCN(CC(=O)[O-])CC1.[Gd+3]` (stereo not drawn) [Gadoteridol], the “% Inhibition” value in test [1] was 34%. Besides, in test [2], the “% Inhibition, Mean ± SD” value stood at 11 ± 5%; the “% Inhibition, plate 1” value was 7%; the “% Inhibition, plate 2” value is reported as 3%; the “% Inhibition, plate 3” value is reported as 10%. In test [2], the “% Inhibition, plate 4” value worked out at 13%; the “% Inhibition, plate 5” value is on record as 16%; the “% Inhibition, plate 6” value came to 15%.

`CC(C)Cc1ccc(C(C)C(=O)O)cc1` (stereo not drawn) [Ibuprofen]: the inhibition at 10 µM in test [1] is 48%; in test [2] (setting [3]), 7 ± 5%; in test [2] (setting [4]) it was 1%; in test [2] (setting [5]), 6%; in test [2] (setting [6]), 5%; in test [2] (setting [7]), 8%. The inhibition at 10 µM in test [2] (setting [8]) is 15%; in test [2] (setting [9]), 7%.

As for `CC(C(=O)O)c1cccc(C(=O)c2ccccc2)c1` (stereo not drawn) [Ketoprofen], the inhibition at 10 µM in test [1] is 34%; in test [2] (setting [3]), 9 ± 5%; in test [2] (setting [4]), 2%; in test [2] (setting [5]), 14%; in test [2] (setting [6]) it was 9%; in test [2] (setting [7]) it was 8%. Also, the inhibition at 10 µM in test [2] (setting [8]) came out at 15%; in test [2] (setting [9]), 4%.

Regarding `Cc1cccc(Nc2ccccc2C(=O)O)c1C` [Mefenamic acid], the inhibition at 10 µM was determined as 48% in test [1]; 16 ± 8% in test [2] (setting [3]); 5% in test [2] (setting [4]); 24% in test [2] (setting [5]); 17% in test [2] (setting [6]); 22% in test [2] (setting [7]). Besides, the inhibition at 10 µM in test [2] (setting [8]) worked out at 20%; in test [2] (setting [9]), 6%.

With `S=c1nc[nH]c2nc[nH]c12` [Mercaptopurine], the inhibition at 10 µM in test [1] is 32%; in test [2] (setting [3]), 13 ± 5%; in test [2] (setting [4]) it was 5%; in test [2] (setting [5]), 15%; in test [2] (setting [6]), 19%; in test [2] (setting [7]), 15%. Besides, the inhibition at 10 µM in test [2] (setting [8]) turned out to be 15%; in test [2] (setting [9]), 11%.

As to `CCCCCCCCCCCCCCCCOP(=O)([O-])OCC[N+](C)(C)C` [Miltefosine], the inhibition at 10 µM in test [1] was determined as 34%; in test [2] (setting [3]) it was 8 ± 4%; in test [2] (setting [4]), 4%; in test [2] (setting [5]) it was 3%; in test [2] (setting [6]), 11%; in test [2] (setting [7]), 10%. Also, the inhibition at 10 µM in test [2] (setting [8]) and in test [2] (setting [9]) was 11% in each case.

As to `Cc1nccnc1N1CCCCC1` [Modaline sulfate], the inhibition at 10 µM stood at 34% in test [1]; 12 ± 3% in test [2] (setting [3]); 10% in test [2] (setting [4]); 7% in test [2] (setting [5]); 12% in test [2] (setting [6]); 12% in test [2] (setting [7]). The figures for the inhibition at 10 µM in test [2] (setting [8]) and in test [2] (setting [9]) were 13% and 17%, respectively.

As to `NCC(O)c1ccc(O)cc1` (stereo not drawn) [Octopamine hydrochloride], the inhibition at 10 µM amounted to 42% in test [1]; 11 ± 6% in test [2] (setting [3]); 1% in test [2] (setting [4]); 6% in test [2] (setting [5]); 12% in test [2] (setting [6]); 9% in test [2] (setting [7]). In addition, the inhibition at 10 µM in test [2] (setting [8]) was found to be 18%; in test [2] (setting [9]), 17%.

Take `Nc1nc2c(ncn2CCC(CO)CO)c(=O)[nH]1` [Penciclovir]: the inhibition at 10 µM in test [1] was 45%; in test [2] (setting [3]), 0%; in test [2] (setting [4]), -11%; in test [2] (setting [5]) it was 1%; in test [2] (setting [6]), 2%; in test [2] (setting [7]), 3%. The results for the inhibition at 10 µM in test [2] (setting [8]) and in test [2] (setting [9]) were 7% and -3%, respectively.

Turning to `CC(=O)[C@H]1CC[C@H]2[C@@H]3CC=C4C[C@@H](OC(=O)CCC(=O)O)CC[C@]4(C)[C@H]3CC[C@]12C` [Pregnenolone succinate], in test [1], the “% Inhibition” value was determined as 34%. Moreover, in test [2], the “% Inhibition, Mean ± SD” value was determined as 12 ± 4%; the “% Inhibition, plate 1” value is reported as 6%; the “% Inhibition, plate 2” value is 12%; the “% Inhibition, plate 3” value was determined as 8%. Moreover, in test [2], the “% Inhibition, plate 4” value is recorded as 13%; the “% Inhibition, plate 5” value amounted to 17%; the “% Inhibition, plate 6” value was found to be 15%.

`C=CC1=C(C)c2cc3[nH]c(cc4nc(cc5[nH]c(cc1n2)c(C)c5CCC(=O)O)C(CCC(=O)O)=C4C)c(C)c3C=C` [Protoporphyrin ix]: the inhibition at 10 µM in test [1] came out at 46%; in test [2] (setting [3]) it was 20 ± 7%; in test [2] (setting [4]), 12%; in test [2] (setting [5]) it was 16%; in test [2] (setting [6]) it was 21%; in test [2] (setting [7]) it was 18%. Besides, the inhibition at 10 µM in test [2] (setting [8]) amounted to 28%; in test [2] (setting [9]), 29%.

One may read the inhibition as the change of the read-out against control, counted positive when it falls. What is called % Inhibition is the drop in the measured response relative to a control, in per cent. A lower % Inhibition goes with little suppression.

The record behind these values is patent US10322118B2, “Compounds and methods for inhibiting Cif virulence factor” (priority 2012, dated 2019).
